One may read the Ki as the dissociation constant of the complex between target and ligand, obtained from inhibition or displacement. The CC50 is the concentration giving 50% cytotoxicity. A higher CC50 goes with better tolerance by the cells. Usually EC50 stands for the concentration at which the effect is half-maximal.

The target of data set [1] is NS3 (Hepatitis C virus, UniProt A3EZJ3, R155K). The data set can be described thus: Inhibition of HCV genotype-1a full length NS3 protease R155K mutant preincubated for 10 mins followed by Ac-DED(Edans)EEAbuj-[COO]ASK(Dabcyl)-NH2 addition in presence of co-factor 2K-NS4A by fluorescence assay. Set-up: species or system Hepatitis C virus subtype 1a.
Chain of NS3 (Hepatitis C virus, UniProt A3EZJ3, R155K) (A3EZJ3 entry or part of it R155K): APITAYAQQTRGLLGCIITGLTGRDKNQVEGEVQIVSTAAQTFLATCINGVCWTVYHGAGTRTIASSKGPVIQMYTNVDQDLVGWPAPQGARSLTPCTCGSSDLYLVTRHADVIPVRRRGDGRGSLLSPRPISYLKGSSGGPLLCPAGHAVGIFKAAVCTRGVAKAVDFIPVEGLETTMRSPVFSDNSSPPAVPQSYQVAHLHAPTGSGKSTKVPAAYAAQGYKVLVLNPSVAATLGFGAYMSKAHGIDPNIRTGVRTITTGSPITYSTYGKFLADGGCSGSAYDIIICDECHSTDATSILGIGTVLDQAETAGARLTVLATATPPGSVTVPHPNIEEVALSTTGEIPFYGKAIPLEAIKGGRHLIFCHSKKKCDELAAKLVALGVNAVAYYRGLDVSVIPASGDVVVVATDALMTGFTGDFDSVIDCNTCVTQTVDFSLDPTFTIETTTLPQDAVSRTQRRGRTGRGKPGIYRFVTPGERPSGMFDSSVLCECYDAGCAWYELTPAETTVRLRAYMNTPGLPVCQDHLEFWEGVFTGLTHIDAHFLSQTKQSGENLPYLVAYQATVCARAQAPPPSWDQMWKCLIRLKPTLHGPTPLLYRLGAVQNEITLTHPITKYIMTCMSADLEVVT
In data set [2] the target is T1, NS3 (Hepatitis C virus, UniProt A3EZJ3). The data set can be described thus: Inhibition of HCV genotype-1a full length NS3 protease preincubated for 10 mins followed by Ac-DED(Edans)EEAbuj-[COO]ASK(Dabcyl)-NH2 addition in presence of co-factor 2K-NS4A by fluorescence assay. Set-up: species or system Hepatitis C virus subtype 1a.
T1 sequence (A3EZJ3 whole entry): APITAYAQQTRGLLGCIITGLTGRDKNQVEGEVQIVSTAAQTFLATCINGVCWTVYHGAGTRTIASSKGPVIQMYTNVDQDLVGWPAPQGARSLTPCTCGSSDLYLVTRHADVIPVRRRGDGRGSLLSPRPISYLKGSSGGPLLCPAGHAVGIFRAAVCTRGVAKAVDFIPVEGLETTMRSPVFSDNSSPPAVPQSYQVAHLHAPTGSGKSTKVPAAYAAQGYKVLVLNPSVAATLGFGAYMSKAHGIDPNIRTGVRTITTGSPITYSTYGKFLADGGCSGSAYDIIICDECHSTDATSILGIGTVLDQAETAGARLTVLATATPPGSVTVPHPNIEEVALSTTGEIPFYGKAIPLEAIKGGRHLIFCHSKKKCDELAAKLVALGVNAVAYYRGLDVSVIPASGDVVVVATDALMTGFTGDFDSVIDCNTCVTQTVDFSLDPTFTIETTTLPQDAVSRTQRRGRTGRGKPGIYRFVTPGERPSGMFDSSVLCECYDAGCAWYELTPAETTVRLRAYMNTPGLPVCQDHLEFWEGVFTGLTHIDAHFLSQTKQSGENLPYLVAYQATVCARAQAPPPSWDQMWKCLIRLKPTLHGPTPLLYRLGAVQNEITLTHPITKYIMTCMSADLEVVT
Data set [3] has as its target T1, NS3. The data set can be described thus: Inhibition of HCV genotype-3a full length NS3 protease preincubated for 10 mins followed by Ac-DED(Edans)EEAbuj-[COO]ASK(Dabcyl)-NH2 addition in presence of co-factor 2K-NS4A by fluorescence assay. Set-up: species or system Hepatitis C virus subtype 3a.
Data set [4] is described as follows: Cytotoxicity against human HuH7 cell. Type of data set: cell-based, Huh-7. The conditions noted are these: HuH7 cells.
Data set [5] has as its system Hepatitis C virus. Kind of data set: Antiviral activity against HCV genotype 1b infected in human HuH7 cells. Type of data set: functional, organism-based, Hepacivirus hominis. The settings on record: Huh-7.
In data set [6] the target is T1, NS3. The data set can be described thus: Inhibition of HCV genotype-1a NS3 protease. Set-up: species or system Hepatitis C virus subtype 1a.

Non-standard residues stand in square brackets, D forms with d. Residues, ends and D or L forms follow the SMILES beside them. dGla = N[C@H](CC(C(=O)O)C(=O)O)C(=O)O; Cha = N[C@@H](CC1CCCCC1)C(=O)O

As to `CC1(C)CC(=O)N(C[C@@H](NC(=O)Nc2nc(Cl)c(CCC3CCCCC3)n(CC(=O)Nc3cc(F)ccc3C(=O)NS(=O)(=O)c3ccc(C(F)(F)F)cc3)c2=O)C(C)(C)C)C(=O)C1`, the Ki stood at 2 nM in data set [1], 30 nM in data set [2] and 5.4 nM in data set [3]. This molecule yielded a CC50 in data set [4] of 26000 nM. The 50% effective concentration (EC50) in data set [5] is 7100 nM.
`CC(C)(C)N1CCN(c2nc(Cl)c(Cc3ccccc3)n(CC(=O)Nc3ccccc3C(=O)NS(=O)(=O)c3ccc(C(F)(F)F)cc3)c2=O)C1=O`: the Ki in data set [2] worked out at 380 nM.
Consider `CC(C)(C)[C@@H](CNS(=O)(=O)c1cccnc1)NC(=O)Nc1nc(Cl)c(Cc2ccccc2)n(CC(=O)Nc2cc(F)ccc2C(=O)NS(=O)(=O)c2ccc(C(F)(F)F)cc2)c1=O`, for which the results for the Ki in data set [1] and in data set [2] were 40 nM and 190 nM, respectively.
For `CC(C)(C)NC(=O)Nc1nc(Cl)c(CCC2CCCCC2)n(CC(=O)Nc2ccccc2C(=O)O)c1=O`, the Ki in data set [3] worked out at 70 nM.
With `CC1(C)CC(=O)N(C[C@@H](NC(=O)Nc2nc(Cl)c(Cc3ccccc3)n(CC(=O)Nc3cc(F)ccc3C(=O)NS(=O)(=O)c3ccc(C(F)(F)F)cc3)c2=O)C(C)(C)C)C(=O)C1`, the results for the inhibitory constant (Ki) in data set [1], in data set [2] and in data set [3] were 30 nM, 160 nM and 135 nM, respectively.
`O=C(Cn1c(Cc2ccccc2)c(Cl)nc(NNC(=O)c2ccccc2)c1=O)Nc1ccccc1C(=O)NS(=O)(=O)c1ccc(C(F)(F)F)cc1`: in data set [2], the inhibitory constant (Ki) is 1650 nM.
For `CC(C)(C)NC(=O)Nc1nc(Cl)c(CCC2CCCCC2)n(CC(=O)NC2(C(=O)NS(=O)(=O)c3ccc(C(F)(F)F)cc3)CC(OCc3ccccc3)C2)c1=O` (stereo not given), the Ki in data set [3] is 68 nM.
In the case of `CC[C@H](C)[C@H](NC(=O)[C@H](CC(C)C)NC(=O)[C@@H](CC(C(=O)O)C(=O)O)NC(=O)[C@H](CC(=O)O)NC(C)=O)C(=O)N[C@@H](CC1CCCCC1)C(=O)N[C@@H](CS)C(=O)O` (Ac-D[dGla]LI[Cha]C-OH), in data set [2], the Ki is 9 nM.
In the case of `CC(C)(C)NC(=O)Nc1nc(Cl)c(CCC2CCCCC2)n(CC(=O)Nc2cc(-c3cncnc3)ccc2C(=O)NS(=O)(=O)c2ccc(C(F)(F)F)cc2)c1=O`, in data set [3], the Ki stood at 87 nM.
Take `CC(C)(C)NC(=O)Nc1nc(Cl)c(Cc2cccc3ccccc23)n(CC(=O)Nc2ccccc2S(=O)(=O)NC(=O)c2ccc(C(F)(F)F)cc2)c1=O`: the inhibition constant Ki in data set [3] was determined as 170 nM.
On to `COc1ccc2c(O[C@@H]3C[C@H]4C(=O)N[C@]5(C(=O)O)C[C@H]5/C=C\CCCCC[C@H](NC(=O)OC5CCCC5)C(=O)N4C3)cc(-c3csc(NC(C)C)n3)nc2c1` [CILUPREVIR], for which the Ki in data set [3] amounted to 20 nM; in data set [6] it was 0.089 nM. In addition, in data set [4], the 50% cytotoxic concentration (CC50) is above 100 nM.

Values taken from ChEMBL document CHEMBL4196039, “Pan-NS3 protease inhibitors of hepatitis C virus based on an R3-elongated pyrazinone scaffold” (Eur J Med Chem, 2018).
